Biological target: T1, human S1P1 receptors (Homo sapiens, UniProt P21453)
T1 construct: host or cells: HEK293
Experiment: S1P1R antagonist assay (fluorescent membrane potential dye, cAMP readout)
Format: cell-based
Details: HEK293 cells expressing human S1P1 receptors and CNG channel; 500 nM NECA; S1P1R agonist 10 nM; 90 minutes; read-out: EC50 or IC50 value

T1 sequence (P21453 whole entry): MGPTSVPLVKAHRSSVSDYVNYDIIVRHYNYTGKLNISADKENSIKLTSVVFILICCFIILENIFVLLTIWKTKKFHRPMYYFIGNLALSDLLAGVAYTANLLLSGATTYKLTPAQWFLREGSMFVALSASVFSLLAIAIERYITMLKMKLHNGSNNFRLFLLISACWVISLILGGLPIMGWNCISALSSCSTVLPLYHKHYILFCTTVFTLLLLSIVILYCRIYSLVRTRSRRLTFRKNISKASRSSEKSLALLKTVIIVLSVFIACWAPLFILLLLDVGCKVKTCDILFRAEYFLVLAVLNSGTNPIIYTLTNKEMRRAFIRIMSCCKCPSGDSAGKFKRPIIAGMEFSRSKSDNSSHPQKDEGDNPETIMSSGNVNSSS

Q: For O=C(Cc1c[nH]c2ccc(F)cc12)N[C@@H](COCc1ccccc1)C(=O)Nc1ccc(Oc2ccc(F)cc2)cc1 [Compound 212, (S)-3-(benzyloxy)-2-(2-(5-fluoro-1H-indol-3-yl)acetamido)-N-(4-(4-fluorophenoxy)phenyl)propanamide], which IC50 is on record?
A: ≤ 300 nM

Q: CC(C)(C(=O)N[C@@H](COCc1ccccc1)C(=O)Nc1ccc(Oc2ccc(F)cc2)cc1)c1c[nH]cn1 [Compound 213, (S)-2-(2-(1H-imidazol-4-yl)-2-methylpropanamido)-3-(benzyloxy)-N-(4-(4-fluorophenoxy)phenyl)propanamide] was tested. Which IC50 did it give?
A: ≤ 300 nM

Q: Which IC50 does the source give for O=C(CN1CC=CC1)N[C@@H](COCc1ccccc1)C(=O)Nc1ccc(Oc2ccc(F)cc2)cc1 [Compound 214, (S)-3-(benzyloxy)-2-(2-(2,5-dihydro-1H-pyrrol-1-yl)acetamido)-N-(4-(4-fluorophenoxy)phenyl)propanamide] here?
A: ≤ 300 nM

Q: With O=C(CN1CCCC1)N[C@@H](COCc1ccccc1)C(=O)Nc1ccc(Oc2ccc(F)cc2)cc1 [Compound 215, (S)-3-(benzyloxy)-N-(4-(4-fluorophenoxy)phenyl)-2-(2-(pyrrolidin-1-yl)acetamido)propanamide] as the molecule, how does the IC50 read?
A: 300 to 1000 nM

Q: With O=C(CNCCc1c[nH]cn1)N[C@@H](COCc1ccccc1)C(=O)Nc1ccc(Oc2ccc(F)cc2)cc1 [Compound 216, (S)-2-(2-(2-(1H-imidazol-4-yl)ethylamino)acetamido)-3-(benzyloxy)-N-(4-(4-fluorophenoxy)phenyl)propanamide] as the molecule, how does the IC50 read?
A: 300 to 1000 nM

Q: Which IC50 does the source give for COc1ccccc1N1CCN(CC(=O)N[C@@H](COCc2ccccc2)C(=O)Nc2ccc(Oc3ccc(F)cc3)cc2)CC1 [Compound 217, (S)-3-(benzyloxy)-N-(4-(4-fluorophenoxy)phenyl)-2-(2-(4-(2-methoxyphenyl)piperazin-1-yl)acetamido)propanamide] here?
A: 300 to 1000 nM

Q: O=C(CN1CCN(c2ccc(F)cc2)CC1)N[C@@H](COCc1ccccc1)C(=O)Nc1ccc(Oc2ccc(F)cc2)cc1 [Compound 218, (S)-3-(benzyloxy)-N-(4-(4-fluorophenoxy)phenyl)-2-(2-(4-(4-fluorophenyl)piperazin-1-yl)acetamido)propanamide] was tested. Which IC50 did it give?
A: 300 to 1000 nM

Q: For O=C(CN1CCC(Cc2ccccc2)CC1)N[C@@H](COCc1ccccc1)C(=O)Nc1ccc(Oc2ccc(F)cc2)cc1 [Compound 220, (S)-3-(benzyloxy)-2-(2-(4-benzylpiperidin-1-yl)acetamido)-N-(4-(4-fluorophenoxy)phenyl)propanamide], which IC50 is on record?
A: 300 to 1000 nM

Q: For O=C(CN1CCc2ccccc2C1)N[C@@H](COCc1ccccc1)C(=O)Nc1ccc(Oc2ccc(F)cc2)cc1 [Compound 221, (S)-3-(benzyloxy)-2-(2-(3,4-dihydroisoquinolin-2(1H)-yl)acetamido)-N-(4-(4-fluorophenoxy)phenyl)propanamide], which IC50 is on record?
A: 300 to 1000 nM

Q: For O=C(CN1CCC2CCCCC2C1)N[C@@H](COCc1ccccc1)C(=O)Nc1ccc(Oc2ccc(F)cc2)cc1 (stereo partly drawn) [Compound 222, (2S)-3-(benzyloxy)-N-(4-(4-fluorophenoxy)phenyl)-2-(2-(octahydroisoquinolin-2(1H)-yl)acetamido)propanamide], which IC50 is on record?
A: 300 to 1000 nM

Q: How did the IC50 turn out when O=C(CN1CCN(C(=O)c2ccco2)CC1)N[C@@H](COCc1ccccc1)C(=O)Nc1ccc(Oc2ccc(F)cc2)cc1 [Compound 223, (S)-3-(benzyloxy)-N-(4-(4-fluorophenoxy)phenyl)-2-(2-(4-(furan-2-carbonyl)piperazin-1-yl)acetamido)propanamide] was run?
A: 300 to 1000 nM

Q: Which IC50 does the source give for COc1ccc(N2CCN(CC(=O)N[C@@H](COCc3ccccc3)C(=O)Nc3ccc(Oc4ccc(F)cc4)cc3)CC2)cc1 [Compound 224, (S)-3-(benzyloxy)-N-(4-(4-fluorophenoxy)phenyl)-2-(2-(4-(4-methoxyphenyl)piperazin-1-yl)acetamido)propanamide] here?
A: 300 to 1000 nM

Q: With O=C(CN1CCN(c2ccccc2)CC1)N[C@@H](COCc1ccccc1)C(=O)Nc1ccc(Oc2ccc(F)cc2)cc1 [Compound 225, (S)-3-(benzyloxy)-N-(4-(4-fluorophenoxy)phenyl)-2-(2-(4-phenylpiperazin-1-yl)acetamido)propanamide] as the molecule, how does the IC50 read?
A: 300 to 1000 nM

Q: With O=C(Nc1ccc(Oc2ccc(F)cc2)cc1)[C@@H]1C[C@@H](Cc2ccc(F)c(F)c2)CN1C(=O)Cn1ccnn1 [Compound 226, (2S,4R)-1-(2-(1H-1,2,3-triazol-1-yl)acetyl)-4-(3,4-difluorobenzyl)-N-(4-(4-fluorophenoxy)phenyl)pyrrolidine-2-carboxamide] as the molecule, how does the IC50 read?
A: ≤ 300 nM

Q: With O=C(Nc1ccc(Oc2ccc(F)cc2)cc1)[C@@H]1C[C@@H](Cc2ccc(Cl)cc2)CN1C(=O)Cn1nccn1 [Compound 227, (2S,4R)-1-(2-(2H-1,2,3-triazol-2-yl)acetyl)-4-(4-chlorobenzyl)-N-(4-(4-fluorophenoxy)phenyl)pyrrolidine-2-carboxamide] as the molecule, how does the IC50 read?
A: ≤ 300 nM

Q: For O=C(Nc1ccc(Oc2ccc(F)cc2)cc1)[C@@H]1C[C@@H](Cc2ccc(Cl)cc2)CN1C(=O)Cn1ccnn1 [Compound 228, (2S,4R)-1-(2-(1H-1,2,3-triazol-1-yl)acetyl)-4-(4-chlorobenzyl)-N-(4-(4-fluorophenoxy)phenyl)pyrrolidine-2-carboxamide], which IC50 is on record?
A: ≤ 300 nM

Q: For CC(=O)c1ccc(N2CCN(CC(=O)N[C@@H](COCc3ccccc3)C(=O)Nc3ccc(Oc4ccc(F)cc4)cc3)CC2)cc1 [Compound 229, (S)-2-(2-(4-(4-acetylphenyl)piperazin-1-yl)acetamido)-3-(benzyloxy)-N-(4-(4-fluorophenoxy)phenyl)propanamide], which IC50 is on record?
A: 300 to 1000 nM

Q: Which IC50 does the source give for CCN(CC)C(=O)C1CCCN(CC(=O)N[C@@H](COCc2ccccc2)C(=O)Nc2ccc(Oc3ccc(F)cc3)cc2)C1 (stereo partly drawn) [Compound 231, 1-(2-((S)-3-(benzyloxy)-1-(4-(4-fluorophenoxy)phenylamino)-1-oxopropan-2-ylamino)-2-oxoethyl)-N,N-diethylpiperidine-3-carboxamide] here?
A: 300 to 1000 nM

Q: With CC/C=C/CC(=O)N[C@@H](COCc1ccccc1)C(=O)Nc1ccc(Oc2ccc(F)cc2)cc1 [Compound 232, (S,E)-N-(3-(benzyloxy)-1-(4-(4-fluorophenoxy)phenylamino)-1-oxopropan-2-yl)hex-3-enamide] as the molecule, how does the IC50 read?
A: > 1000 nM

Q: For CC(C)CC(=O)N[C@@H](COCc1ccccc1)C(=O)Nc1ccc(Oc2ccc(F)cc2)cc1 [Compound 233, (S)—N-(3-(benzyloxy)-1-(4-(4-fluorophenoxy)phenylamino)-1-oxopropan-2-yl)-3-methylbutanamide], which IC50 is on record?
A: 300 to 1000 nM

Q: C[C@@H]1CN(CC(=O)N[C@@H](COCc2ccccc2)C(=O)Nc2ccc(Oc3ccc(F)cc3)cc2)C[C@H](C)O1 [Compound 234, (S)-3-(benzyloxy)-2-(2-((2R,6S)-2,6-dimethylmorpholino)acetamido)-N-(4-(4-fluorophenoxy)phenyl)propanamide] was tested. Which IC50 did it give?
A: 300 to 1000 nM

Q: With O=C(CN1CCSC1)N[C@@H](COCc1ccccc1)C(=O)Nc1ccc(Oc2ccc(F)cc2)cc1 [Compound 235, (S)-3-(benzyloxy)-N-(4-(4-fluorophenoxy)phenyl)-2-(2-(thiazolidin-3-yl)acetamido)propanamide] as the molecule, how does the IC50 read?
A: 300 to 1000 nM

Q: Which IC50 does the source give for CC(=O)N1CCN(CC(=O)N[C@@H](COCc2ccccc2)C(=O)Nc2ccc(Oc3ccc(F)cc3)cc2)CC1 [Compound 236, (S)-2-(2-(4-acetylpiperazin-1-yl)acetamido)-3-(benzyloxy)-N-(4-(4-fluorophenoxy)phenyl)propanamide] here?
A: 300 to 1000 nM

Q: With O=C(CN1CCN(C(=O)C2CCCO2)CC1)N[C@@H](COCc1ccccc1)C(=O)Nc1ccc(Oc2ccc(F)cc2)cc1 (stereo partly drawn) [Compound 237, (2S)-3-(benzyloxy)-N-(4-(4-fluorophenoxy)phenyl)-2-(2-(4-(tetrahydrofuran-2-carbonyl)piperazin-1-yl)acetamido)propanamide] as the molecule, how does the IC50 read?
A: 300 to 1000 nM

Q: COC(=O)C1CCN(CC(=O)N[C@@H](COCc2ccccc2)C(=O)Nc2ccc(Oc3ccc(F)cc3)cc2)CC1 [Compound 238, (S)-methyl 1-(2-(3-(benzyloxy)-1-(4-(4-fluorophenoxy)phenylamino)-1-oxopropan-2-ylamino)-2-oxoethyl)piperidine-4-carboxylate] was tested. Which IC50 did it give?
A: 300 to 1000 nM

Q: Which IC50 does the source give for O=C(CN1CCN(Cc2c(F)cccc2Cl)CC1)N[C@@H](COCc1ccccc1)C(=O)Nc1ccc(Oc2ccc(F)cc2)cc1 [Compound 239, (S)-3-(benzyloxy)-2-(2-(4-(2-chloro-6-fluorobenzyl)piperazin-1-yl)acetamido)-N-(4-(4-fluorophenoxy)phenyl)propanamide] here?
A: ≤ 300 nM

Q: How did the IC50 turn out when O=C(CN1Cc2ccccc2C1)N[C@@H](COCc1ccccc1)C(=O)Nc1ccc(Oc2ccc(F)cc2)cc1 [Compound 240, (S)-3-(benzyloxy)-N-(4-(4-fluorophenoxy)phenyl)-2-(2-(isoindolin-2-yl)acetamido)propanamide] was run?
A: 300 to 1000 nM

Q: For COCCN1CCN(CC(=O)N[C@@H](COCc2ccccc2)C(=O)Nc2ccc(Oc3ccc(F)cc3)cc2)CC1 [Compound 241, (S)-3-(benzyloxy)-N-(4-(4-fluorophenoxy)phenyl)-2-(2-(4-(2-methoxyethyl)piperazin-1-yl)acetamido)propanamide], which IC50 is on record?
A: 300 to 1000 nM

Q: CCOCCN1CCN(CC(=O)N[C@@H](COCc2ccccc2)C(=O)Nc2ccc(Oc3ccc(F)cc3)cc2)CC1 [Compound 242, (S)-3-(benzyloxy)-N-(4-(4-fluorophenoxy)phenyl)-2-(2-(4-(2-ethoxyethyl)piperazin-1-yl)acetamido)propanamide] was tested. Which IC50 did it give?
A: 300 to 1000 nM

Q: How did the IC50 turn out when O=C(Cc1c[nH]cn1)N[C@@H](COCc1ccccc1)C(=O)Nc1cccc(Oc2ccccc2)c1 [Compound 243, (S)-2-(2-(1H-imidazol-4-yl)acetamido)-3-(benzyloxy)-N-(3-phenoxyphenyl)propanamide] was run?
A: ≤ 300 nM

Q: O=C(Cc1cccc(Br)c1)N[C@@H](COCc1ccccc1)C(=O)Nc1ccc(Oc2ccc(F)cc2)cc1 [Compound 244, (S)-3-(benzyloxy)-2-(2-(3-bromophenyl)acetamido)-N-(4-(4-fluorophenoxy)phenyl)propanamide] was tested. Which IC50 did it give?
A: 300 to 1000 nM

Q: How did the IC50 turn out when O=C(CC[N+](=O)[O-])N[C@@H](COCc1ccccc1)C(=O)Nc1ccc(Oc2ccc(F)cc2)cc1 [Compound 245, (S)-3-(benzyloxy)-N-(4-(4-fluorophenoxy)phenyl)-2-(3-nitropropanamido)propanamide] was run?
A: ≤ 300 nM

Reference: patent US8791102B2, “Acetanilide sphingosine-1-phosphate receptor antagonists” (Exelixis, Inc., priority 2008, dated 2014)
